The results in this text go back to patent US20050272784A1 (priority 2004, published 2005).

The test system of this assay is SPI1 type III protein secretion system (SopE'-'Bla secretion). The assay can be described thus: Primary assay: Type III protein secretion of the chimeric SopE'-'Bla polypeptide by Salmonella enterica. To be noted: read-out: SopE IC50. It counts as cell-based. From the text:
Primary assay: Type III protein secretion of the chimeric SopE′-'Bla polypeptide by Salmonella enterica. This procedure is a cell-based assay that measures the type III-dependent secretion by Salmonella enterica of a plasmid-encoded chimeric polypeptide whose synthesis can be regulated, and which is endowed with an enzymatic activity that can be monitored […] by hydrolysis of a substrate that is unable to penetrate into the bacterial cytoplasm within the time constraints of the reaction. Thus, the colorimetric reaction is not influenced by SopE′-'Bla polypeptide in the bacterial cytoplasm. Instead, it effectively measures the amount of polypeptide that has been secreted from the S. enterica cytoplasm to the extracellular medium via type III system protein secretion.
The SopE′-' Bla recombinant polypeptide consists of two functionally distinct domains spliced together. The N-terminus domain is encoded by a polynucleotide region specifying the signal for type III secretion of the SopE polypeptide of S. enterica, an effector of the SPI1 type III protein secretion system. The C-terminus domain of SopE′-'Bla consists of a 263 amino acid peptide sequence that corresponds to the TEM-1 β-lactamase expressed by plasmid pBR322 but without its N-terminal signal sequence. The TEM-1 β-lactamase part of the SopE′-'Bla chimeric polypeptide is used as a reporter enzyme. It is capable of hydrolyzing nitrocefin resulting in a product whose accumulation can be monitored by colorimetric detection. The secretion of the SopE′-'Bla chimeric polypeptide from the cytoplasm to the extracellular medium is dependent on type III protein secretion.
For this procedure, cells grown under conditions known to favor a functional SPI1 secretion system are induced for expression of the SopE′-'Bla protein and grown either in the presence or in the absence of putative inhibitors for determined time. Nitrocefin is then added to the various cultures and its hydrolysis are used for quantitation. An inhibitor of Type III protein secretion is generally a compound that reduces the signal of the enzymatic reaction by decreasing the amount of SopE′-'Bla secreted into the extracellular medium.
On to `O=C(N[C@@H](CSCc1ccccc1)C(=O)O)c1nc(-c2ccc(C(F)(F)F)cc2)oc1-c1cnc2ccccc2n1` [Compound 11, (R)-3-Benzylsulfanyl-2-{[5-quinoxalin-2-yl-2-(4-trifluoromethylphenyl)oxazole-4-carbonyl]amino}propionic acid], for which the IC50 worked out at 42.2 µM.
For the molecule `O=C(N[C@@H](CSCc1ccccc1)C(=O)O)c1nc(-c2ccc(C(F)(F)F)cc2)oc1-c1ccc(-c2ccsc2)cc1` [Compound 20, (R)-3-Benzylsulfanyl-2-{[5-(4-thien-3-yl-phenyl)-2-(4-trifluoromethylphenyl)oxazole-4-carbonyl]amino}propionic acid], the IC50 came out at 3.3 µM.
In the case of `O=C(N[C@@H](CSCc1ccccc1)C(=O)O)c1nc(-c2ccc(C(F)(F)F)cc2)oc1-c1ccc(-c2nccs2)cc1` [Compound 21, (R)-3-Benzylsulfanyl-2-{[5-(4-thiazol-2-yl-phenyl)-2-(4-trifluoromethylphenyl)oxazole-4-carbonyl]amino}propionic acid] it was 3.1 µM; in that of `O=C(N[C@@H](COCc1ccccc1)C(=O)O)c1nc(-c2ccc(C(F)(F)F)cc2)oc1-c1cccnc1Cl` [Compound 24, (S)-3-Benzyloxy-2-{[5-(2-chloropyridin-3-yl)-2-(4-trifluoromethylphenyl)oxazole-4-carbonyl]amino}propionic acid], 80.5 µM.
The figure for `O=C(N[C@@H](CSCc1ccccc1)C(=O)O)c1nc(-c2ccc(C(F)(F)F)cc2)oc1-c1cccnc1Cl` [Compound 25, (R)-3-Benzylsulfanyl-2-{[5-(2-chloropyridin-3-yl)-2-(4-trifluoromethylphenyl)oxazole-4-carbonyl]amino}propionic acid] is 62.6 µM.
The figure for `O=C(N[C@@H](CSCc1ccccc1)C(=O)O)c1nc(-c2ccc(C(F)(F)F)cc2)oc1-c1ccc2ccccc2n1` [Compound 26, (R)-3-Benzylsulfanyl-2-{[5-quinolin-2-yl-2-(4-trifluoromethylphenyl)oxazole-4-carbonyl]amino}propionic acid] is 5.8 µM; for `O=C(N[C@@H](Cc1ccc(Cl)cc1)C(=O)O)c1nc(-c2ccc(C(F)(F)F)cc2)oc1-c1ccc2ccccc2n1` [Compound 28, (S)-3-(4-Chlorophenyl)-2-{[5-quinolin-2-yl-2-(4-trifluoromethylphenyl)oxazole-4-carbonyl]amino}propionic acid] it is 3.6 µM.
In the case of `O=C(N[C@@H](C[S+]([O-])Cc1ccccc1)C(=O)O)c1nc(-c2ccc(C(F)(F)F)cc2)oc1-c1cccnc1N1CCCCC1` (stereo partly drawn) [Compound 30, (R)-3-Phenylmethanesulfinyl-2-{[5-(3,4,5,6-tetrahydro-2H-[1,2′]bipyridin-3′-yl)-2-(4-trifluoromethylphenyl)oxazole-4-carbonyl]amino}propionic acid], the IC50 was determined as 29.2 µM.
On to `O=C(N[C@@H](CS(=O)(=O)Cc1ccccc1)C(=O)O)c1nc(-c2ccc(C(F)(F)F)cc2)oc1-c1cccnc1N1CCCCC1` [Compound 31, (R)-3-Phenylmethanesulfonyl-2-{[5-(3,4,5,6-tetrahydro-2H-[1,2′]bipyridin-3′-yl)-2-(4-trifluoromethylphenyl)oxazole-4-carbonyl]amino}propionic acid], for which the IC50 was determined as 71.5 µM.
The figure for `CC(=O)N1CCN(c2ncccc2-c2oc(-c3ccc(C(F)(F)F)cc3)nc2C(=O)NC(Cc2ccc(Cl)cc2)C(=O)O)CC1` (stereo not shown) [Compound 32, 2-{[5-[2-(4-Acetylpiperazin-1-yl)pyridin-3-yl]-2-(4-trifluoromethylphenyl)oxazole-4-carbonyl]amino}-3-(4-chlorophenyl)propionic acid] is 77.3 µM; for `O=C(NC(CSCc1ccccc1)C(=O)O)c1nc(-c2ccc(Oc3ccccc3)cc2)oc1-c1ccc(Cl)nc1Cl` (stereo not shown) [Compound 36, 3-Benzylsulfanyl-2-{[5-(2,6-dichloropyridin-3-yl)-2-(4-phenoxyphenyl)oxazole-4-carbonyl]amino}propionic acid] it is 3.3 µM.
The figure for `O=C(NC(Cc1ccc(Cl)cc1)C(=O)O)c1nc(-c2ccc(Oc3ccccc3)cc2)oc1-c1ccc(Cl)nc1Cl` (stereo not shown) [Compound 38, 3-(4-Chlorophenyl)-2-{[5-(2,6-dichloropyridin-3-yl)-2-(4-phenoxyphenyl)oxazole-4-carbonyl]amino}propionic acid] is 2.4 µM; for `O=C(N[C@@H](CSCc1ccccc1)C(=O)O)c1nc(-c2ccc(Oc3ccccc3)cc2)oc1-c1cnc(Cl)c(Cl)c1` [Compound 39, (R)-3-Benzylsulfanyl-2-{[5-(5,6-dichloropyridin-3-yl)-2-(4-phenoxyphenyl)oxazole-4-carbonyl]amino}propionic acid] it is 9.1 µM; for `O=C(N[C@@H](COCc1ccccc1)C(=O)O)c1nc(-c2ccc(Oc3ccccc3)cc2)oc1-c1cnc(Cl)c(Cl)c1` [Compound 40, (S)-3-Benzyloxy-2-{[5-(5,6-dichloropyridin-3-yl)-2-(4-phenoxyphenyl)oxazole-4-carbonyl]amino}propionic acid] it is 5.2 µM.
In the case of `O=C(N[C@@H](COCc1ccccc1)C(=O)O)c1nc(-c2ccc(-c3ccccc3)cc2)oc1-c1cnc(Cl)c(Cl)c1` [Compound 44, (S)-3-Benzyloxy-2-{[2-biphenyl-4-yl-5-(5,6-dichloropyridin-3-yl)oxazole-4-carbonyl]amino}propionic acid] it was 3.3 µM; in that of `Cn1cc(-c2oc(-c3ccc(C(F)(F)F)cc3)nc2C(=O)N[C@@H](CSCc2ccccc2)C(=O)O)c2ccccc21` [Compound 46, (R)-3-Benzylsulfanyl-2-{[5-(1-methyl-1H-indol-3-yl)-2-(4-trifluoromethylphenyl)oxazole-4-carbonyl]amino}propionic acid], 47.3 µM; in that of `Cn1cc(-c2oc(-c3ccc(C(F)(F)F)cc3)nc2C(=O)N[C@@H](COCc2ccccc2)C(=O)O)c2ccccc21` [Compound 47, (S)-3-Benzyloxy-2-{[5-(1-methyl-1H-indol-3-yl)-2-(4-trifluoromethylphenyl)oxazole-4-carbonyl]amino}propionic acid], 54 µM.
For `N=C(NO)c1ccc(-c2oc(-c3ccc(C(F)(F)F)cc3)nc2C(=O)N[C@@H](CSCc2ccccc2)C(=O)O)cc1` [Compound 49, (R)-3-Benzylsulfanyl-2-{[5-[4-(N-hydroxycarbamimidoyl)phenyl]-2-(4-trifluoromethylphenyl)oxazole-4-carbonyl]amino}propionic acid], the IC50 was found to be 34.7 µM.
In the case of `O=C(N[C@@H](CSCc1ccccc1)C(=O)O)c1nc(-c2ccc(C(F)(F)F)cc2)oc1-c1ccc(-c2noc(C(F)(F)F)n2)cc1` [Compound 50, (R)-3-Benzylsulfanyl-2-{[5-[4-(5-trifluoromethyl[1,2,4]oxadiazol-3-yl)phenyl]-2-(4-trifluoromethylphenyl)oxazole-4-carbonyl]amino}propionic acid] it was 64.3 µM.
The figure for `O=C(NC(Cc1ccc(Cl)cc1)C(=O)O)c1nc(-c2ccc(C(F)(F)F)cc2)oc1-c1cnc2ccccc2n1` (stereo not shown) [Compound 54, 3-(4-Chlorophenyl)-2-{[5-quinoxalin-2-yl-2-(4-trifluoromethylphenyl)oxazole-4-carbonyl]amino}propionic acid] is 49.4 µM; for `O=C(N[C@@H](COCc1ccccc1)C(=O)O)c1nc(-c2ccc(C(F)(F)F)cc2)oc1C1CCN(c2nccc(C(F)(F)F)n2)CC1` [Compound 56] it is 12 µM.
In the case of `O=C(NC(Cc1ccc(Cl)cc1)C(=O)O)c1nc(-c2cccc3ccccc23)oc1-c1ccc(C(F)(F)F)nc1` (stereo not shown) [Compound 58, 3-(4-Chlorophenyl)-2-{[2-naphthalen-1-yl-5-(6-trifluoromethylpyridin-3-yl)oxazole-4-carbonyl]amino}propionic acid] it was 4.2 µM; in that of `O=C(NC(Cc1ccc(Cl)cc1)C(=O)O)c1cc(-c2ccc(-c3ccccc3)cc2)nn1-c1cccc(C(F)(F)F)c1` (stereo not shown) [Compound 74, 2-{[5-Biphenyl-4-yl-2-(3-trifluoromethylphenyl)-2H-pyrazole-3-carbonyl]amino}-3-(4-chlorophenyl)propionic acid], 1.5 µM; in that of `O=C(NC(Cc1ccc(Cl)cc1)C(=O)O)c1cc(-c2ccc(-c3ccccc3)cc2)nn1-c1ccc(Cl)c(Cl)c1` (stereo not shown) [Compound 75, 2-{[5-Biphenyl-4-yl-2-(3,4-dichlorophenyl)-2H-pyrazole-3-carbonyl]amino}-3-(4-chlorophenyl)propionic acid], 3 µM.
Take `O=C(NC(Cc1ccc(Cl)cc1)C(=O)O)c1cc(-c2ccc(-c3ccccc3)cc2)nn1-c1ccc(C(F)(F)F)cc1` (stereo not shown) [Compound 76, 2-{[5-Biphenyl-4-yl-2-(4-trifluoromethylphenyl)-2H-pyrazole-3-carbonyl]amino}-3-(4-chlorophenyl)propionic acid]: the IC50 was found to be 19.6 µM.
